# Measurements taken from US11826402B2, “Combination therapy involving antibodies against claudin 18.2 for treatment of metastatic pancreatic adenocarcinoma” (Astellas Pharma Inc., priority 2013, dated 2023).
# How the values were obtained:
# NUGC-4 = assay: IMAB362-induced ADCC on gastric cancer cells, also with ZA/IL-2 cultivated PBMCs; assay type: cell-based, human
# Method: Specific killing was determined in luciferase assays.
# DANG xenografts = assay: Subcutaneous DANG xenograft treatment; assay type: in vivo, mice; conditions: low CLDN18.2 expressing DANG xenografts
# Panc02.03 = assay: IMAB362-mediated ADCC assay; assay type: cell-based, human; conditions: at least 2 donors
# [1] = system: CLDN18.2 on the cell surface of pancreatic cancer cell lines; assay: Flow cytometry (FACS) of IMAB362 on pancreatic cancer cell lines; assay type: binding, human; conditions: 2E5 cells/100 μl with 50 μg/ml IMAB362
# Method: Cells were harvested with PBS/5 mM EDTA or Trypsin/EDTA from an exponentially growing culture at 70-85% confluency. Cells were counted, centrifuged for 5 min (468 g) and the pellet was resuspended in FACS buffer (2% FCS, 0.1% sodium azide in PBS) adjusting the concentration to 2×10^6/ml. 100 μl cells were plated in round bottom 96-well plates and again centrifuged (5 min, 468 g). […] Then, 200 μl FACS buffer was added to each well and plates were centrifuged (5 min, 468 g). The supernatant was removed and washing was repeated. Secondary goat anti-human antibodies (FC specific, F(ab′)2 conjugated with APC (Dianova)) were diluted (1:100) in FACS buffer and 30 μl was added to each well. Plates were incubated for 30 min at 4° C. After incubation plates were washed again two times with 200 μl FACS buffer and the pellet was finally resuspended in 100 μl FACS buffer for measurement FACS Array Bioanalyzer (BD) according to GA_018_BD FACS Array bioanalyzer.
# HPAFII = assay: IMAB362-mediated ADCC assay; assay type: cell-based, human; conditions: at least 2 donors
# HUP-T3 = assay: IMAB362-mediated ADCC assay; assay type: cell-based, human; conditions: at least 2 donors
# [2] = Repeated dose toxicity study in cynomolgus monkeys; assay type: in vivo
# AsPC1 = assay: IMAB362-mediated ADCC assay; assay type: cell-based, human; conditions: at least 2 donors
# KCI-MOH = assay: IMAB362-mediated ADCC assay; assay type: cell-based, human; conditions: at least 2 donors
# [3] = molecular target: first extracellular domain (ECD1) of CLDN18.2 (Homo sapiens, UniProt P56856); assay: Target binding of IMAB362 (background)
# BxPC3-CLDN18 = assay: IMAB362 mediated apoptosis of gemcitabine treated pancreas tumor cells; assay type: cell-based, human; conditions: BxPC3-CLDN18, medium or 100 ng/ml gemcitabine, after 48 hours
# Method: BxPC3-CLDN18 were cultivated in medium or medium+100 ng/ml gemcitabine. Apoptotic cell fraction of […] were shifted. Similar shifts were obtained by incubation of tumor cells with Camptotecin.
# Following the indicated treatments, apoptosis was measured by annexin V binding (detection kit I) or by a DNA fragmentation assay (Apo-Direct) as recommended by the manufacturer (PharMingen, San Diego, Calif.). Briefly, cells floating in the supernatant were combined with the adherent fraction, which was trypsinized and then washed. An aliquot of 5 E+05 cells was incubated with annexin V-APC and PI for 15 min at room temperature in the dark. Cells were immediately analyzed by flow cytometry. Viable cells exclude both annexin V-APC and PI. Early apoptotic cells are annexin V-APC-positive and PI-negative, whereas cells that are no longer viable due to apoptotic or necrotic cell death are positively stained by both annexin V and PI. Percentage of stained cells in each quadrant was quantified using FlowJo software (BD Biosciences, Franklin Lakes, N.J.).
# The apoptotic assay based on DNA fragmentation was performed as follows. Treated cells (adherent and floating) were fixed in 70% icecold EtOH overnight. […] Cells were rinsed, incubated in RNase A/propidium iodide in the dark for 30 min at room temperature to stain total DNA, then analyzed by flowvcytometry. […]
# HUP-T4 = assay: IMAB362-mediated ADCC assay; assay type: cell-based, human; conditions: at least 2 donors
# [4] = Repeated dose toxicity study in mice; assay type: in vivo
# MiaPaCa-2-LVT = assay: Inhibition of proliferation (XTT viability assay, 4 days); assay type: cell-based, human
# Method: (§1) To analyze dose-response curves of each chemotherapeutic agent, a proliferation assay was performed.
# (§2) Cells were seeded in 96 well plates and after 4-6 hours gemcitabine or oxaliplatin was added in following concentrations: 1000, 500, 250, 100 and 20 ng/ml. The proliferation assay was incubated for 4 days at 37° C. and 5% CO2. 50 μl XTT complete reagent (50 parts XTT+1 part coupl. reagent mixed) was added and incubated at 37° C. Measurement of absorbance (cells plus supernatant) was done with the Tecan Safire after 3 h and 4 h. Inhibition of proliferation was calculated compared to medium values set as 100%. EC50 values for gemcitabine and oxaliplatin were calculated in the GraphPad Prism program.
# BxPC3-LVT = assay: as above; assay type: cell-based, human
# Method: as §1, §2
# DANG = assay: as above; assay type: cell-based, human
# Method: as §1, §2
# [5] = system: established MiaPaCa-2-LVT xenograft tumors; assay: Established MiaPaCa-2-LVT xenograft tumors, high dose gemcitabine; assay type: in vivo, mice; conditions: established MiaPaCa-2-LVT tumors, gemcitabine 2×150 mg/kg per week, independent from IMAB362
# Source text: 9 days after subcutaneous tumor inoculation, tumor bearing mice reorganised in homogenous treatment groups with 8 animals per group and treatment was initiated.
# [6] = Homo sapiens, 96 h, 4 days exposure
compound,measurement,setting,value
"IMAB362: chimeric IgG1 antibody directed against CLDN18.2, developed by Ganymed Pharmaceuticals AG",ADCC activity with ZA/IL-2 cultivated PBMCs,NUGC-4; PBMCs cultivated 14 days with ZA/IL-2,Strong IMAB362-dependent ADCC activity
same,maximum lysis rates (ADCC),"NUGC-4; up to 200 μg/ml, 24 hours, human PBMC E:T 40:1",80-100%
same,growth inhibition compared to high CLDN18.2 expressing xenograft tumors,DANG xenografts,reduced
same,ADCC EC50,Panc02.03,n.m.
same,ADCC Max. lysis,Panc02.03,n.m.
same,CLDN18 surface expression (FACS),[1]; AsPC1,0.14%
same,CLDN18 surface expression (FACS),[1]; BxPC3 (ATCC),1.16%
same,CLDN18 surface expression (FACS),[1]; BxPC3 (ECACC),0.90%
same,CLDN18 surface expression (FACS),[1]; CAPAN1,0.54%
same,CLDN18 surface expression (FACS),[1]; CFPAC1,0.55%
same,CLDN18 surface expression (FACS),[1]; DANG,1.19%
same,CLDN18 surface expression (FACS),[1]; HPAC,0.81%
same,CLDN18 surface expression (FACS),[1]; HPAFII,10.00%
same,CLDN18 surface expression (FACS),[1]; HUP-T3,0.23%
same,CLDN18 surface expression (FACS),[1]; HUP-T4,5.30%
same,CLDN18 surface expression (FACS),[1]; KP-2,0.54%
same,CLDN18 surface expression (FACS),[1]; MiaPaCa2,0.22%
same,CLDN18 surface expression (FACS),[1]; Panc01,65%
same,CLDN18 surface expression (FACS),[1]; Panc03.27,7.30%
same,CLDN18 surface expression (FACS),[1]; Panc04.03,1.38%
same,CLDN18 surface expression (FACS),[1]; Panc05.04,15%
same,CLDN18 surface expression (FACS),[1]; Patu8902,0.39%
same,CLDN18 surface expression (FACS),[1]; Patu8988T,6.00%
same,CLDN18 surface expression (FACS),[1]; SW1990,2.53%
same,CLDN18 surface expression (FACS),[1]; Su86.86,1.51%
same,CLDN18 surface expression (FACS),[1]; Suit2,0.41%
same,CLDN18 surface expression (FACS),[1]; YPAC,0.23%
same,ADCC EC50,HPAFII,n.m.
same,ADCC Max. lysis,HPAFII,n.m.
same,ADCC EC50,HUP-T3,n.m.
same,gastric toxicity,[2]; any toxicity study,no gastric toxicity
same,tolerability of repeated doses i.v.,[2]; up to 5 weekly applications of up to 100 mg/kg,well tolerated
same,ADCC EC50,AsPC1,n.m..
same,ADCC Max. lysis,AsPC1,n.m.
same,ADCC EC50,KCI-MOH,n.m.
same,recognition of ECD1 of CLDN18.2,[3],high affinity and specificity
same,induction of apoptosis,BxPC3-CLDN18,Apoptosis induced by cross-linking
same,ADCC EC50,HUP-T4,n.m.
same,ADCC Max. lysis,HUP-T4,n.m.
same,gastric toxicity,[4]; any toxicity study,no gastric toxicity
same,tolerability of repeated doses i.v.,"[4]; weekly for 3 months, up to 400 mg/kg",well tolerated
"Nc1ccn([C@@H]2O[C@H](CO)[C@@H](O)C2(F)F)c(=O)n1 [gemcitabine, 4-amino-1-(2-deoxy-2,2-difluoro-β-D-erythro-pentofuranosyl)pyrimidin-2(1H)-one]",sensitivity of cells to the agent,MiaPaCa-2-LVT,less sensitive
same,IC50,MiaPaCa-2-LVT; [6],50 ng/mL
same,sensitivity of cells to the agent,BxPC3-LVT,very sensitive
same,IC50,BxPC3-LVT; [6],~2 ng/mL
same,sensitivity of cells to the agent,DANG,very sensitive
same,IC50,DANG; [6],~1 ng/mL
same,tumor growth,[5],strongly inhibited in tumor growth
